Consider three molecules from US20260176249A1, “PROTEIN KINASE INHIBITOR, PREPARATION METHOD THEREFOR, AND APPLICATION THEREOF” (SHANDONG LUYE PHARMACEUTICAL CO., LTD., priority 2021, published 2026).

Like-named read-outs stand apart in the source and are kept apart here.

For one data set, the target named is T1, PLK1 kinase (Homo sapiens, UniProt P53350).
T1 construct: purchased Carnabio (Carna Biosciences) 05-157
Description: Inhibitory activity on PLK1 kinase. It is filed as biochemical. Conditions: for Imax: maximum effect caused by the compound at the test concentration. The procedure:
Detection solution PerkinElmer #TRF0218-M
Detection instrument PerkinElemer EnVision
a. Using the Echo machine, the compounds to be tested were diluted by 1:3 on a 384-well plate, and the highest concentration was 1 μM, with a total of 10 concentration points, and each concentration was tested in duplicate wells.
b. 5 μL/well of PLK1 kinase and peptide substrate mixture were added to the assay plate (containing controls).
d. The reaction was initiated by adding 5 μL/well of ATP solution;
e. The assay plate was centrifuged at 1000 rpm for about 15 seconds, a film was used to seal the assay plate which was incubated at 23° C. for a period of time;
f. A detection solution was added to all wells of the assay plate;
g. The assay plate was centrifuged at 1000 rpm for approximately 15 seconds, a film was used to seal the assay plate which was incubated at 23° C. for 60 min.
h. The assay plate was read on EnVision. The test results were analyzed using XLFIT5 software.

In data set [1] the test system is HCT116 cells. Description: Inhibitory activity on HCT116 cell proliferation (ATPlite). It is filed as cell-based. Conditions: Homo sapiens. The procedure:
Cell culture medium: RPMI1640+10% FBS (GBICO)
Cell culture plate: 96-well plate (Shanghai Jingan Biotechnology Co., Ltd.)
Detection kit: ATPlite 1step Luminescence (PerkinElmer)
Detection instrument: BioTek multifunctional microplate reader
2. Test method: HCT116 cells in the logarithmic growth phase were seeded into a white-wall clear-bottom 96-well plate at a density of 720 cells per well, and cultured overnight in a 37° C., 5% CO2 incubator. […] After adding the drug, culturing was continued for 72 h in a 37° C., 5% CO2 incubator.
GraphPad Prism 7.0 was used to process the data, the cell inhibition rate curve was obtained and IC50 was calculated.

Data set [2] in a line: Permeability and efflux transporter substrate evaluation in Caco-2 cells. The arrangement: Papp A→B at 120 min / Papp B→A at 120 min / efflux ratio at 120 min / Papp at 120 min: dose or concentration left out as unconfirmed. In kind it is in vitro ADME. Conditions: human; for efflux ratio at 120 min / Papp at 120 min: Caco-2, pH 7.4; for Papp at 120 min: read-out: Classification Permeability; for Papp A→B at 120 min / Papp B→A at 120 min: pH 7.4, pH 7.40; for Papp A→B at 120 min: Caco-2, apical to basolateral; for Papp B→A at 120 min: Caco-2, basolateral to apical. As for the experimental part: (§1) The cells were cultured in a carbon dioxide incubator for 21-28 days before being used for transport experiments. During this period, the culture medium was changed every four to five days.
(§2) This project uses Hank's balanced salt buffer (pH 7.40±0.05) containing 10 mM HEPES as the transport buffer. The culture medium was removed from the culture plate and the cells were washed twice with preheated transport buffer (approximately 75 μL and 40 mL of transport buffer for each apical well and basolateral receiver plate respectively). The donor solution and receiver solution were added to the corresponding cell plate wells (75 and 250 μL for each apical and basolateral well respectively), and the bidirectional transport experiment was started (apical to basolateral (A-B) and basolateral to apical (B-A)). The test concentration of the test substance was […], and two replicate wells were made for each dosing concentration. The test concentration of Digoxin was […], with dosing bidirectionally; the test concentrations of nadolol and metoprolol were both […], and they were dosed in one direction (A-B direction), and two replicate wells were made for each of the three control compounds.
(§3) The initial donor solution is the TO sample. After adding the sample, it was mixed with the transport buffer and stop solution in a certain proportion.
(§4) All samples were vortexed, and then centrifuged at 3220×g for 20 min at 20° C. A proper volume of supernatant was transferred to a sample assay plate, and the sample was stored at 2-8° C. if it was not analyzed immediately after the plate was sealed, and LC MS/MS method was used for analysis.
(§5) The Lucifer Yellow Rejection Assay was used to test the integrity of the Caco-2 cell layer.
(§6) The following formulas were used to calculate the apparent permeability coefficient (Papp, cm/s), efflux ratio (ER), and solution recovery (%) (% Solution Recovery).
(§7) [formula] [formula] [formula] • VR is the volume of the receiver side solution (side A is 0.075 mL, side B is 0.25 mL); Area is the relative surface area of the cell monolayer (0.0804 cm^2); Time is the incubation time (7200 s); C0 is the initial concentration (nM) of the test substance at the donor side or the peak area ratio of the control compound; VD is the volume of the donor side (side A is 0.075 mL, side B is 0.25 mL); CD and CR are the final concentration (nM) of the test substance at the donor side and the receiver side respectively or the peak area ratio of the control compound; • Lucifer yellow transmittance rate (% Lucifer Yellow) is calculated using the following formula:
(§8) [formula] • RFUApical and RFUBasolateral are the relative fluorescence intensity of lucifer yellow at the apical and basolateral sides respectively. VApical and VBasolateral are the sample loading volumes at the apical and basolateral sides respectively (0.075 and 0.25 mL respectively).

The test system of a further data set is Caco-2 cells. The description is as above. It is filed as in vitro ADME. On the set-up: Papp A→B at 120 min / Papp B→A at 120 min / efflux ratio at 120 min / Papp at 120 min: dose or concentration left out as unconfirmed. Conditions: Caco-2. As for the experimental part:
as §1, §2, §3, §4, §5, §6, §7, §8

The nature of data set [3]: Metabolic stability in mouse liver microsomes. It is filed as in vitro ADME. As for the experimental part:
(§9) a. Preparation of phosphate buffer: The phosphate buffer powder was dissolved in 100 mL of pure water to prepare a phosphate buffer solution with a pH of 7.4 and a concentration of 100 mM, which was stored in a 4° C. refrigerator for later use.
(§10) b. All samples as well as the reference testosterone were dissolved in DMSO to obtain a 10 mM stock solution. The 10 mM stock solution was diluted to 100 μM with acetonitrile to obtain a working solution for later use.
(§11) c. Preparation of liver microsome working solution: Each of the mouse, rat and human liver microsome stock solutions (at concentration of 20 mg/mL) was taken and diluted to 0.56 mg/mL with 100 mM phosphate buffer solution to obtain the liver microsome working solution.
(§12) d. Preparation of solution: An appropriate amount of MgCl2 was weighed and used to prepare a MgCl2 solution at a concentration of 60 mM using 100 mM phosphate buffer solution. An appropriate amount of NADPH was weighed and used to prepare a NADPH solution at a concentration of 20 mM using 100 mM phosphate buffer solution. An equal volume of 60 mM MgCl2 solution was added to prepare an NADPH working solution containing 10 mM NADPH and 30 mM MgCl2. An acetonitrile solution containing 20 ng/mL tolbutamide was prepared as the stop solution.
(§13) e. Liver microsome incubation: 2 μL of each compound and the positive drug testosterone working solution were added to 178 μL of liver microsome working solution (0.56 mg/mL), mixed gently, and pre-incubated in a vibrating constant temperature water bath pot at 37° C. for 10 min. After adding 20 μL of NADPH working solution, the mixture was placed in a vibrating constant temperature water bath pot at 37° C. and timed incubation was started for 5, 10, 20, 30 and 60 min.
(§14) f. Stopping reaction: After the corresponding time of incubation, 400 μL of stop solution was added to stop the reaction, and then the sample was immediately shaken for 1 min. The sample was centrifuged at 13500 rpm for 10 min at 10° C. After centrifugation, the supernatant was removed, diluted with water according to the needs of each compound, and analyzed by LC-MS. For the 0-minute sample, the stop solution was first added and mixed evenly with the liver microsomes, and then the NADPH working solution was added. For the negative control sample, 20 μL of 30 mM MgCl2 solution was added instead of the NADPH working solution.
(§15) T1/2 and CLint(mic) were calculated by the following formula.
(§16) [formula] [formula] • CLint(mic)=0.693/T1/2/liver microsomal protein concentration during incubation (mg/mL) • CLint(ver)=CLint(mic)*liver microsomal protein (mg)/liver weight (g)*liver weight to body weight ratio
(§17) Liver microsomal protein (mg)/liver weight (g): the value is 45 in both animal and human species.
(§18) Liver weight to body weight ratio: the parameters for mice, rats and humans are 88, 40 and 20 g/kg respectively.

Data set [4] is described as follows: Metabolic stability in rat liver microsomes. It is filed as in vitro ADME. As for the experimental part: as §9, §10, §11, §12, §13, §14, §15, §16, §17, §18
A short description of data set [5]: Metabolic stability in human liver microsomes. It is filed as in vitro ADME. The procedure:
as §9, §10, §11, §12, §13, §14, §15, §16, §17, §18
(In general: Microsomes from liver hold many membrane-bound enzymes, among them those of drug oxidation.)

The subject of data set [6] is HCT116 cells. Description: In vivo pharmacodynamic study of compound 1 in HCT116 tumor-bearing mice. The arrangement: species or system Balb/C Nude mice. Conditions: 20 mg/kg once a day by gavage, vs sham group. From the text:
Balb/C Nude mice, SPF grade, male, weighing 18-20 g, were purchased from Jiangsu Gempharmatech Co., Ltd.
HCT116 cells were purchased from ATCC.
Matrigel Matrix, Cat. No. 354248, was purchased from Becton, Dickinson and Company.
Kolliphor® HS 15, Cat. No. 42966, was purchased from Sigma-Aldrich.
a. Establishment of tumor-bearing mouse model: HCT116 cells in the logarithmic growth phase were taken and cultured, the cells were collected and counted, and then subcutaneously inoculated into Balb/C Nude mice at 1×10^6/mouse. The tumor volume and body weight of the mice were measured regularly. 7 days after inoculation, mice with tumor volume of 150 mm3 were randomly divided into groups and treated with corresponding drugs.
b. […] The administration was performed once a day by gavage for 21 consecutive days, and the tumor volume and body weight of the mice were measured regularly.
3. Data processing: All data were organized in EXCEL, and One-way ANOVA analysis and drawing were performed using GraphPad Prism 8.0 software. Statistical significance was achieved when p<0.05.

T1 sequence (P53350 whole entry): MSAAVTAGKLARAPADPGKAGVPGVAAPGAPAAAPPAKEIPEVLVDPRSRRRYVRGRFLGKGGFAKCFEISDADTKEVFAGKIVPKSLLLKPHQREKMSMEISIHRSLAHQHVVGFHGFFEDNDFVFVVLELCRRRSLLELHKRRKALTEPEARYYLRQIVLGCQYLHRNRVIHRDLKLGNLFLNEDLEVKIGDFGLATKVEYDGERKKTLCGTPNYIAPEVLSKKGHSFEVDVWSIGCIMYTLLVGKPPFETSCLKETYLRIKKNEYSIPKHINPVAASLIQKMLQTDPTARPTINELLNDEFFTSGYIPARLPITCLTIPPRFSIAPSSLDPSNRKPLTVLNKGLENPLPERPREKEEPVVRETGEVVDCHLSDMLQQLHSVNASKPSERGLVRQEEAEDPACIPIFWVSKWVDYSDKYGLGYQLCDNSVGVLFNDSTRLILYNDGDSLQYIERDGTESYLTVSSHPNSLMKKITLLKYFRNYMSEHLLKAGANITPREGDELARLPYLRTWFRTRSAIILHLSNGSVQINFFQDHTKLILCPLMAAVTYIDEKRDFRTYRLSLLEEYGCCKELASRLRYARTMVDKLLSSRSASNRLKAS

With `CN1CCN(c2ccc(OC(F)(F)F)c(Nc3ncc4ccc5c(C(N)=O)nn(C)c5c4n3)c2)CC1` [Compound 3], the IC50 against PLK1 kinase was determined as 0.714 nM; in the data set with HCT116 cells [1] (HCT-116, 72 h), 93 nM. The molecule further had an Imax at PLK1 kinase of 99.57%. The efflux ratio at 120 min in data set [2] stood at 1.32. In data set [2], the Papp at 120 min was in the range of 0.5 to 2.5 ×10⁻⁶ cm/s. Besides, the Papp A→B at 120 min in data set [2] was 0.644 ×10⁻⁶ cm/s. In addition, in data set [2], the Papp B→A at 120 min was found to be 0.851 ×10⁻⁶ cm/s. Further, the “Classification Efflux transporter substrate” value in the data set with Caco-2 cells is recorded as “Very unlikely or not (ERa < 2.00)”. The entries for the “60 min remaining amount” value in data set [3], in data set [4] and in data set [5] were 4.32%, 2.74% and 7.83%, respectively. Besides, the Clearance rate result in data set [3], in data set [4] and in data set [5] was “High” each time. Further, the CLint scaled at 1 µM came to 409 mL/min/kg in data set [3] (mouse, pH 7.4); 505 mL/min/kg in data set [4] (rat, pH 7.4); 78.7 mL/min/kg in data set [5] (human, pH 7.4). For the same molecule, the half-life at 1 µM in data set [3] (mouse, pH 7.4) was 13.4 min; in data set [4] (rat, pH 7.4) it was 4.94 min; in data set [5] (human, pH 7.4) it was 15.9 min. Besides, the microsomal CLint at 1 µM in data set [3] (mouse, pH 7.4, read-out: CLint(mic)) came to 103 µL/min/mg; in data set [4] (rat, pH 7.4, read-out: CLint(mic)), 281 µL/min/mg; in data set [5] (human, pH 7.4, read-out: CLint(mic)), 87.4 µL/min/mg.
Regarding `CN1CCN(c2ccc(OC(F)(F)F)c(Nc3ncc4ccc5c(C(N)=O)nn(CCO)c5c4n3)c2)CC1` [Compound 1], the Papp at 120 min in data set [2] fell in the range of 0.5 to 2.5 ×10⁻⁶ cm/s. Also, in data set [2], the Papp A→B at 120 min was 0.965 ×10⁻⁶ cm/s. For the same molecule, in data set [2], the Papp B→A at 120 min worked out at 20.8 ×10⁻⁶ cm/s. Further, in the data set with Caco-2 cells, the “Classification Efflux transporter substrate” value is listed as “Likely (ERa ≥ 2.00)”. In addition, the tumor inhibition rate in the data set on HCT116 cells [6] (11 days) is recorded as 82.0%; in the data set on HCT116 cells [6] (16 days), 86.5%; in the data set on HCT116 cells [6] (21 days), 88.3%.
With `CN1C2CCC1CN(c1ccc(OC(F)(F)F)c(Nc3ncc4c(n3)-c3c(c(C(N)=O)nn3CCO)CC4)c1)C2` [Compound 23], at PLK1 kinase (PLK1 kinase, highest concentration 1 μM, 10 points, read-out: IC50), the IC50 worked out at 3.66 nM. In addition, on PLK1 kinase, the Imax is 98.18%. In addition, the IC50 in the data set on HCT116 cells [1] (HCT-116, HCT116 cells, 72 h, read-out: IC50) turned out to be 214 nM. Besides, in data set [2], the efflux ratio at 120 min is > 82.6, the Papp at 120 min was < 0.5 ×10⁻⁶ cm/s, the Papp A→B at 120 min is < 0.28 ×10⁻⁶ cm/s and the Papp B→A at 120 min came to 23.1 ×10⁻⁶ cm/s. Besides, in the data set with Caco-2 cells, the “Classification Efflux transporter substrate” value is given as “Likely (ERa ≥ 2.00)”.

By IC50 is commonly meant the concentration needed to halve the response being measured. For orientation: efflux ratio means a quotient of directional permeabilities that is used to spot active efflux. What is called Papp A→B is the apparent permeability from the apical to the basolateral side of a cell layer. As a reminder, the Papp B→A is the apparent permeability from the basolateral to the apical side of a cell layer. In general, CLint scaled refers to the rate of metabolic loss divided by the concentration. What is called half-life is how long it takes for the measured level to halve.
